From ChEMBL document CHEMBL1201862, “PubChem BioAssay data set” (2004) come the findings set out here.

Holding throughout (assay): NCI anticancer screen, dose series, 48 h
For test [1], the system named is RPMI-8226.
Test [2] relates to SNB-19.
In test [3] the test system is CCRF-CEM.
Test [4] has as its system HT-29.
Test [5] has as its system SK-MEL-5.
The test system of test [6] is CAKI-1.
In test [7] the test system is K562.
The test system of test [8] is HOP-62.
Test [9] deals with MCF7.
Test [10] concerns SF-539.
Test [11] deals with NCI-H460.
The test system of test [12] is OVCAR-3.
In test [13] the test system is NCI/ADR-RES.
The subject of test [14] is T47D.
Test [15] has as its system RXF 393.
Test [16] deals with OVCAR-5.
Test [17] deals with A549.
In test [18] the test system is Malme-3M.
For test [19], the system named is MOLT-4.

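Grown in 96-well plates, cells were treated for 48 hours with each compound at five concentrations. Insufficient inhibition: endpoint recorded as highest concentration tested. GI50: concentration for 50% inhibition of growth.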 Activity calls are given as the source filed them. Rule as the data show it: active = GI50 up to about 1.1 µM and inactive = higher. Bridge positions count the residues as written; N and C are the ends. Peptide text beside a SMILES is read from it. * marks the point of attachment. Cbz = O=C(OCc1ccccc1)* Bounds are passed on as bounds.

For the compound `Cc1[nH]n(-c2ncc(C(=O)O)c(=O)[nH]2)c(=O)c1CCO`, the GI50 in test [1] is > 100 µM (inactive); in test [2], > 100 µM (inactive); in [3], > 100 µM (inactive); in test [4], > 83.8 µM (inactive); in test [5] it was > 100 µM (inactive); in test [6] it was > 100 µM (inactive). Moreover, the GI50 is > 100 µM (inactive) in test [7]; > 100 µM (inactive) in test [8]; > 92.7 µM (inactive) in [9]; > 84.9 µM (inactive) in [10]; > 75.7 µM (inactive) in test [11]; > 100 µM (inactive) in test [12]. The GI50 is > 100 µM (inactive) in test [13]; > 100 µM (inactive) in test [14]; > 100 µM (inactive) in [15]; > 100 µM (inactive) in test [16]; > 85.3 µM (inactive) in [17]; > 100 µM (inactive) in test [18]. Also, in test [19], the GI50 was > 100 µM (inactive).

As for `CNC(=O)C1CCCCNC(=O)CCC(NC(=O)OCc2ccccc2)C(=O)N1` (stereo not drawn) (Cbz-Glu-Lys-NHMe; lactam 1-2; configuration not given here), the GI50 in test [1], in test [2], in test [3], in [4], in test [5] and in test [6] was > 100 µM (inactive) each time. The GI50 in test [7], in test [8], in test [9], in test [10], in [11] and in test [12] was > 100 µM (inactive) throughout. Also, the GI50 in test [13], in [14], in test [15], in test [16], in test [17] and in [18] was > 100 µM (inactive) throughout. Also, in [19], the GI50 is > 100 µM (inactive).

As to `O=C(Nc1ccccc1)c1cc(S(=O)(=O)Nc2nc3cccnc3[nH]2)c(SSc2cc(Cl)c(C(=O)Nc3ccccc3)cc2S(=O)(=O)Nc2nc3cccnc3[nH]2)cc1Cl`, the GI50 in test [1], in [2], in test [3], in test [4], in test [5] and in test [6] was > 100 µM (inactive) each time. Also, the GI50 in test [7], in [8], in [9], in [10], in [11] and in test [12] was > 100 µM (inactive) throughout. For the same compound, the GI50 in test [13], in test [14], in test [15], in test [16], in test [17] and in test [18] was > 100 µM (inactive) throughout. Besides, in test [19], the GI50 was > 100 µM (inactive).

For the compound `COc1ccccc1NC1Oc2cc3c(cc2C(c2cc(OC)c(OC)c(OC)c2)C1C)OCO3` (configuration not stated), the GI50 in test [1] is 1.93 µM (inactive); in test [2], 6.56 µM (inactive); in [3] it was 2.37 µM (inactive); in test [4], 2.11 µM (inactive); in test [5], 0.769 µM (active); in test [6], 2.22 µM (inactive). Further, the GI50 was 0.875 µM (active) in test [7]; 5.26 µM (inactive) in [8]; 2.65 µM (inactive) in [9]; 1.7 µM (inactive) in [10]; 4.09 µM (inactive) in [11]; 1.52 µM (inactive) in test [12]. In addition, the GI50 in test [13] is 2.59 µM (inactive); in test [14] it was 5.86 µM (inactive); in test [15], 1.14 µM (inactive); in test [16], 6.64 µM (inactive); in test [17] it was 4.53 µM (inactive); in [18], 0.383 µM (active). Also, the GI50 in test [19] was 3.8 µM (inactive).

With `O=C1CCC2(CC1CC(Sc1ccccc1)Sc1ccccc1)OCCO2` (configuration not stated), the GI50 was 30 µM (inactive) in test [1]; 74.1 µM (inactive) in test [2]; 31 µM (inactive) in [3]; 61.4 µM (inactive) in test [4]; 17.5 µM (inactive) in test [5]; 34.9 µM (inactive) in test [6]. Also, the GI50 in [7] was 31.9 µM (inactive); in [8], 81.1 µM (inactive); in test [9] it was 32 µM (inactive); in test [10] it was 43.1 µM (inactive); in [11], 31.8 µM (inactive); in test [12], 30.6 µM (inactive). For the same compound, the GI50 in test [13] is 33.4 µM (inactive); in test [14], 22.5 µM (inactive); in test [15], 36.1 µM (inactive); in test [16], 72.4 µM (inactive); in test [17] it was 38.2 µM (inactive); in test [18], 29.6 µM (inactive). Moreover, the GI50 in [19] was 20.7 µM (inactive).

Turning to `O=C1c2cc(I)ccc2N2CCN=C2N1Cc1ccccc1`, the GI50 in [1] was 92.7 µM (inactive); in [2], 63.8 µM (inactive); in test [3] it was > 100 µM (inactive); in test [4], > 100 µM (inactive); in [5], > 100 µM (inactive); in test [6], > 100 µM (inactive). Moreover, the GI50 in test [7] is > 100 µM (inactive); in test [8] it was > 100 µM (inactive); in test [9], > 100 µM (inactive); in test [10], 37.5 µM (inactive); in test [11], > 100 µM (inactive); in test [12] it was > 100 µM (inactive). Moreover, the GI50 in [13] is 70.8 µM (inactive); in test [14], 58.7 µM (inactive); in [15], 23.7 µM (inactive); in [16] it was > 100 µM (inactive); in test [17] it was > 100 µM (inactive); in test [18], > 100 µM (inactive). Also, the GI50 in test [19] is 4.46 µM (inactive).

As to `O=c1[nH]/c(=C/c2ccc3c(c2)OCO3)c(=O)[nH]/c1=C/c1ccc2c(c1)OCO2`, the GI50 in test [1], in test [2], in [3], in test [4], in test [5] and in [6] was > 10 µM (inactive) throughout. Moreover, the GI50 in test [7], in test [8], in [9], in [10], in test [11] and in test [12] was > 10 µM (inactive) each time. Further, the GI50 in test [13], in [14], in test [15], in test [16], in [17] and in [18] was > 10 µM (inactive) each time. Further, the GI50 in [19] was > 10 µM (inactive).

Turning to `Cc1ccc(S(=O)(=O)O)cc1.c1cc2c(c(NC3=NCCN3)c1)CCCC2`, the GI50 in [1] is > 100 µM (inactive); in [2], > 100 µM (inactive); in [3], > 100 µM (inactive); in test [4], 99.5 µM (inactive); in test [5], > 100 µM (inactive); in [6], > 100 µM (inactive). The GI50 in [7], in test [8], in test [9], in test [10], in [11] and in [12] was > 100 µM (inactive) each time. Besides, the GI50 in [13], in [14], in test [15], in test [16], in [17] and in test [18] was > 100 µM (inactive) in each case. The GI50 in test [19] is > 100 µM (inactive).

As for `O=c1cc(N2CCCC2)[nH]c(=O)n1-c1cccc(Cl)c1`, the GI50 in test [1], in test [2], in test [3], in test [4], in test [6] and in test [7] was > 100 µM (inactive) throughout. Also, the GI50 in test [8], in [9], in test [10], in test [11], in test [12] and in [13] was > 100 µM (inactive) throughout. Further, the GI50 in test [14], in test [15], in [16], in [18] and in [19] was > 100 µM (inactive) throughout.

As to `O=C(O)c1ccccc1/C=C1/Nc2ccccc2C1=O`, the GI50 was > 100 µM (inactive) in [1]; > 100 µM (inactive) in test [2]; 44.9 µM (inactive) in [3]; 67.9 µM (inactive) in test [4]; > 100 µM (inactive) in [6]; > 100 µM (inactive) in test [7]. Also, the GI50 in test [8] is > 100 µM (inactive); in test [9] it was 48.8 µM (inactive); in [10], 92.9 µM (inactive); in test [11] it was 32.9 µM (inactive); in test [12] it was > 100 µM (inactive); in test [13] it was > 100 µM (inactive). In addition, the GI50 in test [14] is 51.8 µM (inactive); in test [15], > 100 µM (inactive); in test [16], > 100 µM (inactive); in test [17], > 100 µM (inactive); in test [18], > 100 µM (inactive); in test [19], 91.4 µM (inactive).
